Measurements published in PubChem BioAssay AID2060607 (Molecular Pharmacology Branch, DTP, NCI, 2025).
One block for each molecule: values may come before it.

Test system: 876862-298-R-J1-PDC complex spheroids, viability % test/control
Assay: Anticancer human tumor 876862-298-R-J1-PDC patient-derived endometrial carcinoma cell line growth inhibition [CLK]
Details: for IC50: curve of first compound; for viability, T/C: stronger effect = lower value
In short: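 Multi-cell-type spheroids combined patient-derived tumor cells with HUVEC endothelial cells and human mesenchymal stem cells. Paired agents were dosed in half-log steps down from about clinical Cmax, or from 10 microM where Cmax was unknown.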
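Note: spheroids exposed to drugs for 7 days before readout.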
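Throughout, for viability, T/C: 100% = DMSO vehicle control wells.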

- IC50 (second compound 0.0316 µM): 19.4 nM
- IC50 (second compound 0.1 µM): < 9.49 nM
- IC50 (second compound 0.316 µM): < 9.49 nM
- IC50 (second compound 1 µM): < 9.49 nM
- IC50 (second compound 3.16 µM): < 9.49 nM
- IC50 (second compound 10 µM): < 9.49 nM
Compound: NC(=O)C(=Cn1cnc(-c2cc(C(F)(F)F)cc(C(F)(F)F)c2)n1)c1cncnc1 + CNC(=O)c1ccc(Nc2nc(OC3CCCC3)c3c(-c4ccc5nc(C)oc5c4)c[nH]c3n2)c(OC)c1
- viability, T/C (second compound 0.0316 µM, first compound 0.00949 µM): 52.2%
- viability, T/C (second compound 0.0316 µM, first compound 0.03 µM): 49.7%
- viability, T/C (second compound 0.0316 µM, first compound 0.0949 µM): 35.9%
- viability, T/C (second compound 0.0316 µM, first compound 0.3 µM): 25%
- viability, T/C (second compound 0.0316 µM, first compound 0.949 µM): 9.87%
- viability, T/C (second compound 0.0316 µM, first compound 3 µM): 8.36%
- viability, T/C (second compound 0.1 µM, first compound 0.00949 µM): 37.7%
- viability, T/C (second compound 0.1 µM, first compound 0.03 µM): 34.3%
- viability, T/C (second compound 0.1 µM, first compound 0.0949 µM): 27.8%
- viability, T/C (second compound 0.1 µM, first compound 0.3 µM): 19.4%
- viability, T/C (second compound 0.1 µM, first compound 0.949 µM): 8.19%
- viability, T/C (second compound 0.1 µM, first compound 3 µM): 5.57%
- viability, T/C (second compound 0.316 µM, first compound 0.00949 µM): 35.7%
- viability, T/C (second compound 0.316 µM, first compound 0.03 µM): 24.1%
- viability, T/C (second compound 0.316 µM, first compound 0.0949 µM): 21.8%
- viability, T/C (second compound 0.316 µM, first compound 0.3 µM): 14.3%
- viability, T/C (second compound 0.316 µM, first compound 0.949 µM): 4.08%
- viability, T/C (second compound 0.316 µM, first compound 3 µM): 1.39%
- viability, T/C (second compound 1 µM, first compound 0.00949 µM): 24.4%
- viability, T/C (second compound 1 µM, first compound 0.03 µM): 21.2%
- viability, T/C (second compound 1 µM, first compound 0.0949 µM): 15.8%
- viability, T/C (second compound 1 µM, first compound 0.3 µM): 6.44%
- viability, T/C (second compound 1 µM, first compound 0.949 µM): 2.52%
- viability, T/C (second compound 1 µM, first compound 3 µM): 1.7%
- viability, T/C (second compound 3.16 µM, first compound 0.00949 µM): 19.2%
- viability, T/C (second compound 3.16 µM, first compound 0.03 µM): 13.5%
- viability, T/C (second compound 3.16 µM, first compound 0.0949 µM): 6.99%
- viability, T/C (second compound 3.16 µM, first compound 0.3 µM): 2.31%
- viability, T/C (second compound 3.16 µM, first compound 0.949 µM): 2.53%
- viability, T/C (second compound 3.16 µM, first compound 3 µM): 1.98%
- viability, T/C (second compound 10 µM, first compound 0.00949 µM): 17.8%
- viability, T/C (second compound 10 µM, first compound 0.03 µM): 13.8%
- viability, T/C (second compound 10 µM, first compound 0.0949 µM): 5.85%
- viability, T/C (second compound 10 µM, first compound 0.3 µM): 1.75%
- viability, T/C (second compound 10 µM, first compound 0.949 µM): 1.16%
- viability, T/C (second compound 10 µM, first compound 3 µM): 0.58%

- IC50 (second compound 0.0316 µM): 3670 nM
- IC50 (second compound 0.1 µM): 1070 nM
- IC50 (second compound 0.316 µM): < 31.6 nM
- IC50 (second compound 1 µM): < 31.6 nM
- IC50 (second compound 3.16 µM): < 31.6 nM
- IC50 (second compound 10 µM): < 31.6 nM
Compound: Nc1ccccc1NC(=O)c1ccc(CNC(=O)OCc2cccnc2)cc1 + CNC(=O)c1ccc(Nc2nc(OC3CCCC3)c3c(-c4ccc5nc(C)oc5c4)c[nH]c3n2)c(OC)c1
- viability, T/C (second compound 0.0316 µM, first compound 0.0316 µM): 71.4%
- viability, T/C (second compound 0.0316 µM, first compound 0.1 µM): 88.4%
- viability, T/C (second compound 0.0316 µM, first compound 0.316 µM): 82.8%
- viability, T/C (second compound 0.0316 µM, first compound 1 µM): 80.6%
- viability, T/C (second compound 0.0316 µM, first compound 3.16 µM): 53.1%
- viability, T/C (second compound 0.0316 µM, first compound 10 µM): 29.2%
- viability, T/C (second compound 0.1 µM, first compound 0.0316 µM): 46.3%
- viability, T/C (second compound 0.1 µM, first compound 0.1 µM): 45.3%
- viability, T/C (second compound 0.1 µM, first compound 0.316 µM): 62.3%
- viability, T/C (second compound 0.1 µM, first compound 1 µM): 50.2%
- viability, T/C (second compound 0.1 µM, first compound 3.16 µM): 39.4%
- viability, T/C (second compound 0.1 µM, first compound 10 µM): 24.9%
- viability, T/C (second compound 0.316 µM, first compound 0.0316 µM): 41.2%
- viability, T/C (second compound 0.316 µM, first compound 0.1 µM): 43.8%
- viability, T/C (second compound 0.316 µM, first compound 0.316 µM): 44.7%
- viability, T/C (second compound 0.316 µM, first compound 1 µM): 40.9%
- viability, T/C (second compound 0.316 µM, first compound 3.16 µM): 27.3%
- viability, T/C (second compound 0.316 µM, first compound 10 µM): 16.9%
- viability, T/C (second compound 1 µM, first compound 0.0316 µM): 33.4%
- viability, T/C (second compound 1 µM, first compound 0.1 µM): 31.7%
- viability, T/C (second compound 1 µM, first compound 0.316 µM): 32.5%
- viability, T/C (second compound 1 µM, first compound 1 µM): 27.1%
- viability, T/C (second compound 1 µM, first compound 3.16 µM): 15.7%
- viability, T/C (second compound 1 µM, first compound 10 µM): 9.26%
- viability, T/C (second compound 3.16 µM, first compound 0.0316 µM): 25%
- viability, T/C (second compound 3.16 µM, first compound 0.1 µM): 22.5%
- viability, T/C (second compound 3.16 µM, first compound 0.316 µM): 22.5%
- viability, T/C (second compound 3.16 µM, first compound 1 µM): 16.1%
- viability, T/C (second compound 3.16 µM, first compound 3.16 µM): 12.1%
- viability, T/C (second compound 3.16 µM, first compound 10 µM): 2.17%
- viability, T/C (second compound 10 µM, first compound 0.0316 µM): 21%
- viability, T/C (second compound 10 µM, first compound 0.1 µM): 22.2%
- viability, T/C (second compound 10 µM, first compound 0.316 µM): 16.6%
- viability, T/C (second compound 10 µM, first compound 1 µM): 15.7%
- viability, T/C (second compound 10 µM, first compound 3.16 µM): 10%
- viability, T/C (second compound 10 µM, first compound 10 µM): 0.74%
